Consider three compounds from US5925667A, “Pyrrolidine derivative, anti-ulcer drug, and antibacterial drug” (Shiseido Co., Ltd., priority 1997, dated 1999).

Data set [1] can be described thus: MTT: Cell Damaging and Protecting Effect Test. To be noted: rabbit, gastric mucosa cells, final concentration 10^-4 M, smaller value is better, read-out: cell damaging rate (MTT). The class given is cell-based, male Japanese White rabbit. The text has this:
MTT: Cell Damaging and Protecting Effect Test
It is confirmed that there is no toxicity in cell level. Those having a toxicity in cell level are inappropriate as an anti-ulcer drug.
A male Japanese White rabbit (2.5 to 3 kg) was anesthetized to death by Nembutal™ and, immediately thereafter, its stomach was removed. The greater curvature of the stomach was incised so as to remove the stomach contents therefrom. After the mucosal surface was washed with HBSS (Hanks' Balanced Salt Solution), the stomach in ice-cooled HBSS was transferred to a laboratory. Then, after the pyloric antrum was removed, the gastric corpus mucosa was separated by a spatula and then minced into 2 to 3 mm^3 pieces in BME (Basal Medium Eagle). Thereafer, these pieces were shaken at 120 to 130 cycles/minute for 15 minutes at 37° C. in BME 60 ml containing 280 U/ml of dispase and 30 to 50 U/ml of collagenase. Here, the concentration of collagenase was appropriately changed for each lot in view of the state of cells. The pieces were washed twice with EBSS (Earle's Balanced Salt Solution) containing 1 mM of EDTA and then shaken in MEM (Minimum Essential Medium) containing 1 mM of EDTA at 37° C. for 5 minutes. Subsequently, they were shaken in the dispase and collagenase having the same concentrations as those mentioned above for 15 minutes so as to remove the supernatant and then further shaken at 37° C. for 50 to 60 minutes at 120 to 130 cycles/minute. Then, after being washed twice with HBSS, Ham F12 containing 2% of Ultrocer G™ was used to attain the concentration of 1×10^6 cells/ml. Thus formed suspension was dispensed in each well of a 96-well plate by 200 μl. The plate was incubated in the atmosphere composed of 5% CO2 and 95% air at 37° C. for three days so as to attain a confluent state and then subjected to MTT assay.
The sample compound was dissolved in DMSO so as to attain a concentration of 10^-2 M and then diluted with HBSS containing 2% of Ultrocer G™ so as to attain a final concentration of 10^-4 M. To each group, which 8 wells were used for, 10 μl of MTT reagent was added immediately after 100 μl of the medium in each well was exchanged for same volume of the resulting solution of the sample compound. After being incubated in an atmosphere composed of 5% CO2 and 95% air at 37° C. for 4 hours, thus formed solution was centrifuged and then its supernatant was discarded. Subsequently, 100 μl of 100% ethanol was added to the residue so as to dissolve MTT formazan. Then, the absorbance (OD: 570 to 630) was measured by a microplate reader. This method utilizes a phenomenon in which MTT is changed to MTT formazan only by mitochondria of living cells so as to change color.
The cell damaging or cell protecting effect of the sample compound at the final concentration of 10^-4 M was expressed as cell damaging rate (%) as follows:
cell damaging rate (%)=(1-(absorbance in sample group/absorbance in control group))×100
Accordingly, the smaller value is better in the cell damaging rate.

Data set [2] concerns isolated gastric fundic gland. Put plainly: CAP: Acid Secretion Inhibition Test In Vitro ([14C]-aminopyrine uptake test). The class given is cell-based, male Japanese White rabbit. To be noted: Oryctolagus cuniculus; final concentration 10^-5 M, histamine 10^-5 M; read-out: acid secretion inhibitory rate (CAP). The method, then: CAP: Acid Secretion Inhibition Test In Vitro
The acid secretion inhibitory activity in a cell level is studied. It can also be used for studying the mechanism of the effect.
ii-a) Preparation of isolated gastric fundus gland suspension
First, an isolated gastric fundic gland sample was prepared. Namely, a male Japanese White rabbit (2.5 to 3 kg) was anesthetized to death with Nembutal™ and then the abdomen was incised. Immediately thereafter, the stomach was removed and, after its pyloric and cardiac antrum were severed, incised along its greater curvature into two sheets. The gastric contents adhering to the mucosal surface was washed out with ice-cooled PBS (-) and then carefully washed therein. The gastric wall was spread on a cork board with its mucosal surface facing up and the feed and mucus thereon were completely removed with sterile gauze. The mucosa was separated therefrom by a spatula and then collected in ice-cooled PBS (-). After being washed twice with PBS (-), the mucosa was minced into 2-3 mm^3 pieces by scissors. These pieces were further washed twice with a nutrient solution. The nutrient solution comprises 132.4 mM of NaCl, 5.4 mM of KCl, 5 mM of Na2 HPO4.12H2 O, 1 mM of NaH2 PO4.2H2,
1.2 mM of MgSO4, 1 mM of CaCl2, 25 mM of HEPES, 2 mg/ml of glucose, and 1 mg/ml of BSA.
Into 70 ml of the nutrient solution containing 1 mg/ml of collagenase, minced mucosal pieces were dispersed and intensely stirred in a conical flask with a stirrer at 37° C. for 40 to 60 minutes. During this period, 100% O2 was sprayed on the nutrient solution surface and the pH was appropriately measured such that it was immediately adjusted to pH 7.4, when the value was therebelow, with a base. The nutrient solution was added to the reaction solution so as to attain the total amount of about 200 ml. After being filtered through a mesh, the suspension was divisionally introduced into 50 ml centrifuge tubes and left for 15 minutes such that gastric fundic gland was deposited. The supernatant was repeatedly removed by an aspirator, dispersed in the nutrient solution, and then left such that the gastric fundic gland was washed three times. At this time, without using a pipette, the suspension was alternately introduced into two centrifuge tubes so as to effect dispersion. The number of cells was counted under microscope and adjusted to 1.6×10^6 cells/ml.
ii-b) [^14 C]-aminopyrine uptake test.
Then, [^14 C]-aminopyrine uptake test was performed. After an Eppendorf tube was weighed, 10 μl (final concentration: 10^-5 M) of histamine dissolved in the above-mentioned nutrient solution, 10 μl (final concentration: 10^-5 M) of the test compound dissolved in DMSO, and 10 μl (final concentration: 0.05 μCi/ml) of [^14 C]-aminopyrine diluted with the nutrient solution were introduced therein and then 970 μl of the isolated gastric fundic gland suspension prepared above was added thereto. Subsequently, this mixture was shaken at 37° C. for 40 minutes at 125 cycles/minute. After being centrifuged for 30 seconds, 200 μl of its supernatant was collected into a mini-vial, while the rest was removed by an aspirator. The gland pellet was completely dried as the tube with its lid being opened was kept for one night in a drying oven at 80° C. and then the lid was closed and the weight was determined at room temperature. Then 100 μl of 1N KOH was added thereto and the tube with its lid being closed was treated at 60° C. for 1 to 2 hours so as to dissolve the pellet. Then, the contents thereof were transferred to a mini-vial. Into the mini-vial containing the supernatant or gland pellet, 4 ml of Atomlite™ was added and then the radioactivity was measured by a liquid scintillation counter. Here, after the radioactivity of the gland pellet was corrected by using a sample in which 20 mM of NaSCN was added so as to cancel the hydrogen ion concentration gradient, the integration ratio of aminopyrine specifically trapped by the gland pellet was calculated. […]

As for `CCN1CCCC1CNC(=O)c1cc(OCC=C(C)C)ccc1OCC=C(C)C` (stereo not drawn) [Example 6, 1-ethyl-2-(2,5-diprenyloxybenzoylaminomethyl)pyrrolidine], the cytotoxicity at 4 h, 100 µM in data set [1] was 34%. In addition, in data set [2], the inhibition at 10 µM is 100%.

For the compound `CCN1CCCC1CNC(=O)c1ccc(OCC=C(C)C)c(OCC=C(C)C)c1` (stereo not drawn) [Example 7, 1-ethyl-2-(3,4-diprenyloxybenzoylaminomethyl)pyrrolidine], the cytotoxicity at 4 h, 100 µM in data set [1] stood at 28%. In data set [2], the inhibition at 10 µM came out at 99.7%.

For the compound `CCN1CCCC1CNC(=O)c1cc(OC/C=C(\C)CCC=C(C)C)ccc1OC/C=C(\C)CCC=C(C)C` (stereo not drawn) [Example 10, 1-ethyl-2-(2,5-digeranyloxybenzoylaminomethyl)pyrrolidine], in data set [1], the cytotoxicity at 4 h, 100 µM was found to be 15%. In data set [2], the inhibition at 10 µM came out at 100%.
